Reference: ChEMBL document CHEMBL1134135, “Nitrobenzene compounds inhibit expression of VCAM-1” (Bioorg Med Chem Lett, 2001)

Target: T1, Vascular cell adhesion protein 1 (Homo sapiens, UniProt P19320)
T1 sequence (P19320 whole entry): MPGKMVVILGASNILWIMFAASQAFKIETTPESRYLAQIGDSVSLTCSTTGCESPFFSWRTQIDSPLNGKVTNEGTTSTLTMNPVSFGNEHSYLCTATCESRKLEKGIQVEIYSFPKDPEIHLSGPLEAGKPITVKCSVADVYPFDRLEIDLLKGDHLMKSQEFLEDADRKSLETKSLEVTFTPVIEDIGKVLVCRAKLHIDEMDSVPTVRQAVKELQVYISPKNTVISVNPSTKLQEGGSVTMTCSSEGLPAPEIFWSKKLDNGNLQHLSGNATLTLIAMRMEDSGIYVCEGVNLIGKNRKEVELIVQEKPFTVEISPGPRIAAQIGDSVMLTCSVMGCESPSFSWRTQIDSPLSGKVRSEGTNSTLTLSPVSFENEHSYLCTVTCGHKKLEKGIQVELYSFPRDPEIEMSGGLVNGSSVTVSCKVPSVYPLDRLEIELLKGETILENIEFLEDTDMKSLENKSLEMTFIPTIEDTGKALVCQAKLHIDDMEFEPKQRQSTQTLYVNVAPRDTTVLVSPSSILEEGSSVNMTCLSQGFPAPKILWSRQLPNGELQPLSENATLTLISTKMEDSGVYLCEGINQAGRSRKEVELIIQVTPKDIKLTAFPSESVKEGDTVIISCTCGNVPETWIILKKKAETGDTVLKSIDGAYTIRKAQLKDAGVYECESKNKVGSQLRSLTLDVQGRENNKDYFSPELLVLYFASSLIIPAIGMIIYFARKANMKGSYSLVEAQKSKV
Assay: Ability to inhibit expression of Vascular cell adhesion molecule 1; No effect; call rule not given here

Row | Structure (SMILES) | IC50
1 | N#Cc1cc(Cl)cc(Cl)c1 | Not Active
2 | O=C(O)C1CCN(S(=O)(=O)c2ccc(Cl)c([N+](=O)[O-])c2)CC1 | Not Active
3 | O=[N+]([O-])c1ccccc1Cl | Not Active
4 | CCN(CC)S(=O)(=O)c1cccc([N+](=O)[O-])c1 | Not Active
5 | CCN(CC)S(=O)(=O)c1ccc(Cl)cc1 | Not Active
6 | CCN(CC)c1ccc(S(=O)(=O)N(CC)CC)cc1[N+](=O)[O-] | Not Active
